Data published in patent publication US20240182785A1, “COMPOUND, COMPOSITION, CURED PRODUCT, OPTICALLY ANISOTROPIC BODY, OPTICAL ELEMENT, AND LIGHT GUIDE ELEMENT” (FUJIFILM Corporation, priority 2021, published 2024).

Assays:
Type in all cases: physicochemical
[1] = Evaluation of light resistance of optically anisotropic layer (Super Xenon Weather Meter); details: rate of change in Re of cured layer (25 parts compound, 75 parts L-1), 5 million lx, 50 hours, 63° C., 50% RH, oxygen-blocking
Protocol: (§1) As shown below, the light resistance and the durability of the optically anisotropic layer produced using the composition containing each of the compounds A-1 to A-11 and the compounds B-1 and B-2 were evaluated.
(§2) A coating liquid having the following composition was prepared and applied by spin-coating, onto a rubbing-treated glass attached with an alignment film. Each composition was irradiated with ultraviolet rays of 300 mJ/cm^2 through a filter that cuts light having a wavelength of 350 nm or less on a hot plate which had been heated to a temperature at which a nematic phase is shown, whereby an optically anisotropic layer for a light resistance/durability test was produced.
(§3) The polymerizable liquid crystal compound L-1 is a mixture obtained by mixing at a
(§4) ratio of the following L-1-1/L-1-2/L-1-3=84/14/2 (in terms of mass ratio).
The produced optically anisotropic layers for light resistance/durability tests were irradiated with light using a Super Xenon Weather Meter SX75 manufactured by Suga Test Instruments Co., Ltd. Using KU-1000100 manufactured by King Seisakusho Co., Ltd. as a UV cut filter, a light resistance test was carried out by irradiation with 5 million lx of light for 50 hours under an oxygen-blocking condition. The temperature of the specimen to be tested (the temperature inside the test device) was set to 63° C. The relative humidity in the test device was 50% RH.
The Re of the optically anisotropic layer before and after the light resistance test was measured, the light resistance in a case where the rate of change in Re described below was less than 10% was evaluated as A, and the light resistance in a case where the rate of change in Re was 10% or more was evaluated as B. The smaller the rate of change in Re, the more excellent the light resistance.
(§5) Rate of change in Re (%)=[100×{|(Re after test)−(Re before test)|}/(Re before test)]
(§6) Re was measured with Axoscan manufactured by Axometrics Inc. at a wavelength of 550 nm, and the measurement temperature was set to room temperature.

[2] = Measurement of Δn (refractive index anisotropy), wedge-shaped liquid crystal cell; details: 550 nm, 30° C. or lower limit temperature of nematic phase +0 to 10° C.; some compounds extrapolated from 1/2 mixture with L-1-1
Protocol: The Δn of each of the compounds (the compounds A-1 to A-11 and the compounds B-1 and B-2), which are the compounds to be measured, was measured by a method using a wedge-shaped liquid crystal cell described on page 202 in the Liquid crystal handbook (edited by the liquid crystal handbook editorial board, published by Maruzen Co., Ltd., 2000). Δn was defined as a measured value at a wavelength of 550 nm at 30° C. or the lower limit temperature of the nematic phase +0° C. to 10° C. In a case of a compound which is liable to crystallize or a compound having no liquid crystallinity, evaluation was carried out using a mixture thereof with the other liquid crystal compound, and Δn was estimated from the extrapolated value of the measured value thereof. The following L-1-1 was used as the other liquid crystal compound. As the above mixture, a mixture obtained by mixing at a ratio of the compound to be measured/the L-1-1=1/2 (in terms of mass ratio) was used.
A case where Δn was 0.40 or more was evaluated as A, a case where Δn was 0.35 or more and less than 0.40 was evaluated as B, a case where Δn was 0.30 or more and less than 0.35 was evaluated as C, and a case where Δn was less than 0.30 was evaluated as D. The results are shown in Table 1.

[3] = Evaluation of durability of optically anisotropic layer (moisture-heat resistance test); details: rate of change in Re of cured layer (25 parts compound, 75 parts L-1), 136 hours at 100° C., humidity 95%
Protocol: as §1, §2, §3, §4, §5, §6
The produced optically anisotropic layer was allowed to be left for 136 hours at 100° C. and a humidity of 95%, whereby a moisture-heat resistance test was carried out. The rate of change in Re before and after the durability test was evaluated, the durability in a case where the rate of change in Re was less than 10% was evaluated as A, and the durability in a case where the rate of change in Re was 10% or more was evaluated as B. The smaller the rate of change in Re, the more excellent the durability.

[4] = Evaluation of solubility in cyclopentanone; details: precipitation concentration in cyclopentanone at 25° C.
Protocol: The solubility of each of the compounds (the compounds A-1 to A-11 and the compounds B-1 and B-2) in cyclopentanone was evaluated.

[5] = Evaluation of liquid crystallinity (hot stage, polarization microscope); design: key: A case of having liquid crystallinity was evaluated as A; a case of having no liquid crystallinity was evaluated as B; details: heated on a hot stage
Protocol: The respective compounds (the compounds A-1 to A-11 and the compounds B-1 and B-2) were heated on a hot stage and observed with a polarization microscope, and the phase transition temperature was measured to evaluate the presence or absence of the liquid crystallinity. A case of having liquid crystallinity was evaluated as A, and a case of having no liquid crystallinity was evaluated as B. The results are shown in Table 1.
Since the compound A-8 has melting points of 200° C. or higher and undergoes a polymerization reaction during heating, liquid crystallinity could not be evaluated.

| Structure (SMILES) | Light resistance [1] | Δn [2] | Durability [3] | Solubility [4] | Liquid crystallinity [5] |
| --- | --- | --- | --- | --- | --- |
| C=CC(=O)OCCc1ccc(C#Cc2ccc(-c3ccc(COc4ccc(C#Cc5ccc(CCOC(=O)C=C)cc5)cc4C(=O)OC)cc3)cc2)cc1 [Compound A-1] | A (the light resistance in a case where the rate of change in Re described below was less than 10% was evaluated as A) | B (a case where Δn was 0.35 or more and less than 0.40 was evaluated as B) | A (the durability in a case where the rate of change in Re was less than 10% was evaluated as A) | A (the solubility in a case where the precipitation concentration was 5% by mass or more was evaluated as A) | A |
| C=CC(=O)OCCSc1ccc(C#Cc2cc(C)c(OCc3ccc4cc(C#Cc5ccc(SCCOC(=O)C=C)cc5)ccc4c3)c(C)c2)cc1 [Compound A-4] | A (the light resistance in a case where the rate of change in Re described below was less than 10% was evaluated as A) | A (A case where Δn was 0.40 or more was evaluated as A) | A (the durability in a case where the rate of change in Re was less than 10% was evaluated as A) | A (the solubility in a case where the precipitation concentration was 5% by mass or more was evaluated as A) | A |
| C=CC(=O)OCCSc1ccc(C#Cc2ccc(OCc3ccc4cc(C#Cc5ccc(SCCOC(=O)C=C)cc5)ccc4c3)c(C(=O)OC)c2)cc1 [Compound A-2] | A (the light resistance in a case where the rate of change in Re described below was less than 10% was evaluated as A) | A (A case where Δn was 0.40 or more was evaluated as A) | A (the durability in a case where the rate of change in Re was less than 10% was evaluated as A) | A (the solubility in a case where the precipitation concentration was 5% by mass or more was evaluated as A) | A |
| COC(=O)c1cc(C#Cc2ccc(CCOC(C)=O)cc2)ccc1OCc1ccc(-c2ccc(C#Cc3ccc(CCOC(C)=O)cc3)cc2)cc1 [Compound A-7] | A (the light resistance in a case where the rate of change in Re described below was less than 10% was evaluated as A) | B (a case where Δn was 0.35 or more and less than 0.40 was evaluated as B) | B (the durability in a case where the rate of change in Re was 10% or more was evaluated as B) | A (the solubility in a case where the precipitation concentration was 5% by mass or more was evaluated as A) | A |
| CC(=O)OCCCCCCCCCCOc1ccc(C#Cc2ccc(OC(=O)c3ccc(C#Cc4ccc(OCCCCCCCCCCOC(C)=O)c(F)c4)cc3)cc2)cc1F [Compound B-1, reference compound] | B (the light resistance in a case where the rate of change in Re was 10% or more was evaluated as B) | D (a case where Δn was less than 0.30 was evaluated as D) | A (the durability in a case where the rate of change in Re was less than 10% was evaluated as A) | A (the solubility in a case where the precipitation concentration was 5% by mass or more was evaluated as A) | A |
| C=CC(=O)OCCc1ccc(C#Cc2ccc(OCc3ccc4cc(C#Cc5ccc(CCOC(=O)C=C)cc5)ccc4c3)c(C(=O)OC)c2)cc1 [Compound A-11] | A (the light resistance in a case where the rate of change in Re described below was less than 10% was evaluated as A) | B (a case where Δn was 0.35 or more and less than 0.40 was evaluated as B) | A (the durability in a case where the rate of change in Re was less than 10% was evaluated as A) | A (the solubility in a case where the precipitation concentration was 5% by mass or more was evaluated as A) | A |
